Results on six molecules are retold here after US7071294B1, “Tumor antigen protein art-1 and tumor antigen peptide thereof” (Green Peptide Co., Ltd., priority 1998, dated 2006).

Where no end group is shown, it is not given here.

One test concerns KG-CTL. As to the kind of experiment: IFN-γ production by KG-CTL in response to HLA-A2402-transfected COS-7 cells pulsed with peptide (ELISA). In kind it is cell-based, human. As to conditions: COS-7 transfected with HLA-A2402 cDNA. The method, then:
A surgical sample taken from a patient with lung cancer was cut into small pieces, and then stirred in a culture fluid containing collagenase and DNAse to suspend cells. The cell suspension was centrifuged using Ficoll Conray solution to separate lymphocytes. The lymphocytes were cultured on 24-well plate in a culture medium consisting of 45% RPMI-1640, 45% AIM-V (GIBCO BRL), and 10% FCS supplemented with 100 U/ml interleukin-2 and 0.1 mM NEAA (GIBCO BRL) (hereinafter referred to as lymphocyte medium). During the first two days of the cultivation, an anti-CD3 antibody NU-T3 (Nichirei Corporation) was added to the culture medium at 1 μg/ml. The cultivation was continued for more than 30 days, and a CTL line that is reactive with some kinds of HLA-A24- or HLA-A2-positive cancer cell lines was established. The established CTL line was named KG-CTL and used in subsequent procedures. The reactivity of KG-CTL to each cancer cell line was examined by inoculating the cancer cell line into 96-well plate at 1×10^4, adding KG-CTL at 1×10^5/well thereto on the following day, culturing the same for additional 18 hours, and then determining amount of interferon-γ (IFN-γ) produced by KG-CTL in the recovered culture medium. Measurement of IFN-γ was conducted by enzyme immunoassay (ELISA). […] Anti-human IFN-γ rabbit polyclonal antibody as detection antibody was then allowed to bind, and after binding to an anti-rabbit immunoglobulin goat antibody labeled with […] (Amersham), the chromophore was developed using Peroxidase Chromophoric Kit T (Sumitomo Bakelite), followed by measuring absorbance at 405 nm. The absorbance was compared with that obtained with standard IFN-γ to determine the amount of IFN-γ in the sample. […] The cells were then cultured with 2×10^4 KG-CTLs for 18 hours, and the amount of IFN-γ produced by KG-CTL in the culture supernatant was determined by the ELISA method, thus identifying tumor antigen peptides.

For test [1], the system named is peripheral blood lymphocytes. The experiment in a line: CTL induction from peripheral blood lymphocytes by tumor antigen peptides; IFN-γ produced in response to MT-2 target cells (ELISA). The test is classed as cell-based, human. As to conditions: for IFN-γ in Supernatant: HLA-A24 heterozygous healthy donor lymphocytes stimulated three times with 10 μM peptide, 8×10^4 lymphocytes vs 1×10^4 MT-2 target cells, no peptide gave 3; for IFN-γ production by peptide-stimulated peripheral blood lymphocytes in response to the target cell (CTL induction): MT-2 target cells, not seen with no stimulation. The method, then:
Using the Ficoll method, lymphocytes were separated from peripheral blood of healthy donors who were heterozygous for A24 in the HLA-A locus. The lymphocytes were placed into wells of a 24-well plate at 2×10^6 cells/well, and cultured in the lymphocyte medium. The above tumor antigen peptides were added to the culture medium at 10 μM to stimulate the peripheral blood lymphocytes. One week later, the above tumor antigen peptides were added to attain 10 μM together with about 2×10^5 cells of X-radiated (50 Gy) peripheral blood lymphocytes for the second stimulation. Additional one week later, the third stimulation was conducted in a similar manner. Cultured lymphocytes were harvested one week after the third stimulation. Using as target cells (1×10^4 cells) MT-2, which is an HLA-A2402-positive leukemia cell line expressing the tumor antigen peptide, the amount of IFN-γ in the culture medium produced by the above lymphocytes (8×10^4 cells) in response to the target cells was measured in accordance with ELISA method.

The target of test [2] is T1, HLA-A2402 expressed on COS-7 cells transfected with a recombinant plasmid for HLA-A2402 cDNA (human, UniProt P04439-2 25-302 at identity 0.92)).
T1 MHC heavy: not shown
The experiment in a line: cell-based or functional assay.

In the case of EYCLKFTKL [188–196], the “Reactivity of KG-CTLs compared to cells pulsed with no peptide” value in the test on KG-CTL is listed as “reacted more strongly”. In test [1], the “IFN-γ in Supernatant” value turned out to be 147 pg/mL and the “IFN-γ production by peptide-stimulated peripheral blood lymphocytes in response to the target cell (CTL induction)” value (shortened to “IFN-γ production”) is “produced IFN-γ in response to the target cell”.
Turning to GFDCANESVL [170–179], the “Reactivity of KG-CTLs compared to cells pulsed with no peptide” value in the test with KG-CTL is “reacted more strongly”. In test [1], the “IFN-γ in Supernatant” value stood at 237 pg/mL and the “IFN-γ production” value was “produced IFN-γ in response to the target cell”.
With LYQAVATI [158–165], the “Reactivity of KG-CTLs compared to cells pulsed with no peptide” value in the test with KG-CTL is on record as “reacted more strongly”. Also, in test [1], the “IFN-γ in Supernatant” value amounted to 330 pg/mL and the “IFN-γ production” value is reported as “produced IFN-γ in response to the target cell”.
As for LYQAVATI, in test [2], the “Amount of IFN-γ produced by KG-CTL in the response” value (from here on “Amount of IFN-γ produced by KG-CTL”) turned out to be 289 pg/mL.
As to EYCLKFTKL, the “Amount of IFN-γ produced by KG-CTL” value in test [2] turned out to be 399 pg/mL.
Turning to GFDCANESVL, the “Amount of IFN-γ produced by KG-CTL” value in test [2] turned out to be 458 pg/mL.
